Measurements taken from US8609671B2, “Method of inhibiting hepatic fibrosis as a result of liver replacement or repair using A2B adenosine receptor antagonists” (Gilead Sciences, Inc., priority 2006, dated 2013).
Entries after “also recorded” stand apart in the source; their conditions may differ.

What was measured:
HHSCs [1] = test: Measurement of cAMP accumulation in HHSCs; assay type: cell-based, human; conditions: for effect of agonist on cellular cAMP accumulation: with rolipram 50 μM, 15 min, CGS-21680 (=10 μM); for effect on forskolin-induced cellular cAMP accumulation: agonist 1 μM, forskolin 10 μM
Protocol: (§1) Primary cultured normal human hepatic stellate Cells (HHSCs) were obtained from ScienCell Research Laboratories (San Diego, Calif.) and cultured using stellate cell growth medium (ScienCell Research Laboratories). HHSCs were routinely grown in a humidified incubator with 5% CO2 at 37° C. and reseeded when they reached about 80-90% confluency. Each re-seeding is called a passage. Cells from passages 2 to 5 were used in the following studies.
Cells were harvested using 0.0025% trypsin and 2 mM EDTA in PBS, washed and resuspended in phenol-free DMEM to a concentration of 1×10^6 cells/ml, and then incubated with 1 U/ml of ADA for 30 min at room temperature. Cells were then treated with AdoR agonists, antagonists, and forskolin in the presence of 50 μM of the phosphodiesterase IV inhibitor, rolipram. After incubating for 15 min at 37° C., cells were lysed and cAMP concentrations were determined using cAMP-Screen Direct™ System (Applied Biosystems) according to the manufacturer's instructions.

[2] = molecular target: T1, Human A2A adenosine receptor (Homo sapiens, UniProt P29274); conditions: read-out: affinity for A2A receptor (Ki); cited from earlier work
T1 construct: expressed in transfected cells; host or cells: HEK-293 (HEK-A2A), membrane preparation
T1 sequence (P29274 whole entry): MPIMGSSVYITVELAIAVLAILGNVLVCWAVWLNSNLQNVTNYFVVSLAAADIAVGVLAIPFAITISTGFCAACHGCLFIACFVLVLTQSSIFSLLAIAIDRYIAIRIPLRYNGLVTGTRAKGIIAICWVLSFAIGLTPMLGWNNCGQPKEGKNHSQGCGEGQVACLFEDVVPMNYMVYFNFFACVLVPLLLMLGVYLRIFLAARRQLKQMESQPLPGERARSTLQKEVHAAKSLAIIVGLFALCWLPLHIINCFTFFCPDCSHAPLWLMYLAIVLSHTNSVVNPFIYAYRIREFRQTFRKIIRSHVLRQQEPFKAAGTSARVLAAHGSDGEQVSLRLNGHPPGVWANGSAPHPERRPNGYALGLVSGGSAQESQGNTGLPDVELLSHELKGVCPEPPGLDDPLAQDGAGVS

[3] = molecular target: T2, Human A3 adenosine receptor (Homo sapiens, UniProt P0DMS8); conditions: read-out: affinity for A3 receptor (Ki); cited from earlier work
T2 construct: expressed in transfected cells; host or cells: CHO (CHO-A3), membrane preparation
T2 sequence (P0DMS8 1-318): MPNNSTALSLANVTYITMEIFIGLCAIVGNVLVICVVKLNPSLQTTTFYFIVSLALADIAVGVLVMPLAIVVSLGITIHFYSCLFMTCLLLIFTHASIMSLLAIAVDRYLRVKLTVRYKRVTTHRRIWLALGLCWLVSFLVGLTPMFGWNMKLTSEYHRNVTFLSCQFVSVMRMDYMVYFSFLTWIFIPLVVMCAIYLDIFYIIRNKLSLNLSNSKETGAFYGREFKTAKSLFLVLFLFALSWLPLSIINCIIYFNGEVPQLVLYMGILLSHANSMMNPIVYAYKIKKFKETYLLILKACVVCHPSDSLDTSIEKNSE

HHSCs [4] = test: Collagen production by HHSCs (Sircol collagen assay); assay type: cell-based, human; conditions: 24 h
Protocol: (§2) HHSCs were seeded into 12-well tissue culture plates at a density of 1×10^5 cells/well in stellate cell growth medium and allowed to adhere overnight and reach ˜90% confluency. Cells were washed twice in HEPES buffered saline, and cultured in DMEM containing various agonists or antagonists of AdoRs for 1 or 24 h.
(§3) The concentration of IL-6 in the cell medium was determined using ELISA kits obtained from Biosource (Camarillo, Calif.) according to the manufacturer's instructions. The minimal detection levels of IL-6 with these kits were 2 pg/ml. The concentration of soluble collagen in the cell medium was measured using the Sircol collagen assay (Biocolor Ltd., Belfast N. Ireland) according to manufacture's instructions. The activity of AST in mouse plasma was determined using the Infinity™ AST assay (Thermo Electron Corporation, Waltham, Mass.)

HHSCs [5] = test: IL-6 release by HHSCs (ELISA); assay type: cell-based, human; set-up: maximal increase of IL-6 release over the basal level: concentration or dose not given beside the values
Protocol: as §1, §2, §3

[6] = molecular target: T3, Human A1 adenosine receptor (Homo sapiens, UniProt P30542); conditions: read-out: affinity for A1 receptor (Ki); cited from earlier work
T3 sequence (P30542 1-326): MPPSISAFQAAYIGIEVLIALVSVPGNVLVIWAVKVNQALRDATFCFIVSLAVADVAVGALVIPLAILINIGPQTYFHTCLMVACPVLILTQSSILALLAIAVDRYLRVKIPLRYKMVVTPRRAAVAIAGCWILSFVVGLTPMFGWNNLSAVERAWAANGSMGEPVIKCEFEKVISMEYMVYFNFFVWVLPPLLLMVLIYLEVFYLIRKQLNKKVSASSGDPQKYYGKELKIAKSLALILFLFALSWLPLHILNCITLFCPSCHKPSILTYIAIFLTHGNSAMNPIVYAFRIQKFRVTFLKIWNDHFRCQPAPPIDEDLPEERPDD

ADA^−/− mice = test: Plasma AST levels in ADA-deficient mice; assay type: in vivo; conditions: 1 mg/kg per injection i.p. morning and evening for 17 days, vs vehicle
Protocol: as §3
Adenosine deaminase (ADA)-deficient mice were generated and genotyped as described in Blackburn et al. (1998), J Biol Chem, 273(9):5093-5100. Mice homozygous for the null Ada allele were designated ADA-deficient (ADA^−/−), while mice heterozygous for the null Ada allele were designated as ADA control mice (ADA^+). All mice were on a mixed 129sv/C57BL/6J background and all phenotypic comparisons were performed amongst littermates. Animal care was in accordance with institutional and NIH guidelines. Mice were housed in ventilated cages equipped with microisolator lids and maintained under strict containment protocols. No evidence of bacterial, parasitic, or fungal infection was found, and serologies on cage littermates were negative for 12 of the most common murine viruses. […]

HHSCs [7] = test: mRNA levels of α-smooth muscle actin and α-1 pro-collagen in HHSCs (real-time RT-PCR); assay type: cell-based, human; conditions: NECA 10 μM, 1 h
Protocol: HHSCs were seeded into 12-well tissue culture plates at a density of 1×10^5 cells/well in stellate cell growth medium and allowed to adhere overnight and reach ˜90% confluency. Cells were washed twice in HEPES buffered saline, and cultured in DMEM containing various agonists or antagonists of AdoRs for 1 or 24 h. Total RNA was extracted from HHSCs using the Stratagene Absolutely RNA™ RT-PCR Miniprep Kit followed by DNase treatment to eliminate potential genomic DNA contamination. Real-time RT-RCR for adenosine receptors was performed as previously described in Zhong et al. (2004) Am J Respir Cell Mol Biol; 30(1):118-125. The specific primers for α-smooth muscle actin used were: while the primers for α-1 pro-collagen were: and each of these primers were designed using Primer Express 2.0 (Applied Biosystems) following the recommended guidelines based on sequences from Genbank. At the end of the PCR cycle, a dissociation curve was generated to ensure the amplification of a single product, and the threshold cycle time (Ct value) for each gene was determined. Relative mRNA levels were calculated based on the Ct values, normalized to β-actin in the same sample, and presented as percentages of β-actin mRNA. Measurement of cAMP Accumulation

CCNC(=O)[C@H]1O[C@@H](n2cnc3c(N)nc(NCCc4ccc(CCC(=O)O)cc4)nc32)[C@H](O)[C@@H]1O [CGS-21680]
effect of agonist on cellular cAMP accumulation (HHSCs [1]): did not cause a significant increase

CCCn1c(=O)[nH]c2nc(-c3cnn(Cc4noc(-c5ccc(Cl)cc5)n4)c3)[nH]c2c1=O [compound (1), 8-(1-{[5-(4-chlorophenyl)(1,2,4-oxadiazol-3-yl)]methyl}pyrazol-4-yl)-1-propyl-1,3,7-trihydropurine-2,6-dione]
Ki [2]: > 5 µM | Ki [3]: > 5 µM | effect on NECA-induced collagen production (HHSCs [4]; NECA 10 μM): abolished | reduction of NECA-increased IL-6 release (HHSCs [5]; compound 1 μM together with NECA 10 μM): 90.7±0.1% | effect on NECA-induced cellular cAMP accumulation (HHSCs [1]; antagonist 1 μM): significantly attenuated | Ki [6]: > 5 µM

CNC(=O)[C@H]1O[C@@H](n2cnc3c(NCc4cccc(I)c4)ncnc32)[C@H](O)[C@@H]1O [IB-MECA]
effect on forskolin-induced cellular cAMP accumulation (HHSCs [1]): Lack of effect; also recorded: failed to inhibit

CCCn1c(=O)c2[nH]c(-c3cnn(Cc4cccc(C(F)(F)F)c4)c3)nc2n(CC)c1=O [compound (2), 3-ethyl-1-propyl-8-(1-{[3-(trifluoromethyl)phenyl]methyl}pyrazol-4-yl)-1,3,7-trihydropurine-2,6-dione]
plasma AST levels (ADA^−/− mice): significant reduction

OC[C@H]1O[C@@H](n2cnc3c(NC4CCCC4)ncnc32)[C@H](O)[C@@H]1O [CPA, N6-cyclopentyladenosine]
effect on forskolin-induced cellular cAMP accumulation (HHSCs [1]): Lack of effect; also recorded: failed to inhibit

Nc1ncnc2c1ncn2[C@@H]1O[C@H](CO)[C@@H](O)[C@H]1O [adenosine]
maximal increase of IL-6 release over the basal level (HHSCs [5]): 11.9±3.1 fold | effect on IL-6 release (HHSCs [5]; 24 h): increased IL-6 release in a concentration-dependent manner

CCNC(=O)[C@H]1O[C@@H](n2cnc3c(N)ncnc32)[C@H](O)[C@@H]1O [NECA, 5′-(N-ethylcarboxamido)-adenosine]
release of soluble collagen (HHSCs [4]): increased; also recorded: significant increase | expression of α-1 pro-collagen mRNA (HHSCs [7]): significantly increased | expression of α-smooth muscle actin mRNA (HHSCs [7]): significantly increased | maximal increase of IL-6 release over the basal level (HHSCs [5]): 11.9±3.1 fold | effect on IL-6 release (HHSCs [5]; 24 h): increased IL-6 release in a concentration-dependent manner | increase of IL-6 release compared to vehicle-treated cells (HHSCs [5]; NECA 100 μM, 24 h): 11.9±3.1 fold | effect of agonist on cellular cAMP accumulation (HHSCs [1]): increased cellular cAMP accumulation in a concentration-dependent manner
